Laboratory results: BindingDB's records for doi:10.1016/j.bmcl.2004.11.051 (Merck Frosst Centre For Therapeutic Research, 2005)

Experiments:
[1] = target: Prostaglandin E2 receptor EP2 subtype (Homo sapiens, UniProt P43116); assay: Binding affinity for human prostanoid EP2 receptor
[2] = target: Prostaglandin E2 receptor EP4 subtype (Homo sapiens, UniProt P35408); assay: Binding affinity for human prostanoid EP4 receptor
[3] = target: T1, Prostaglandin E2 receptor EP3 subtype (Homo sapiens, UniProt P43115); assay: Binding affinity for human prostanoid EP3 receptor
T1 sequence (P43115 whole entry): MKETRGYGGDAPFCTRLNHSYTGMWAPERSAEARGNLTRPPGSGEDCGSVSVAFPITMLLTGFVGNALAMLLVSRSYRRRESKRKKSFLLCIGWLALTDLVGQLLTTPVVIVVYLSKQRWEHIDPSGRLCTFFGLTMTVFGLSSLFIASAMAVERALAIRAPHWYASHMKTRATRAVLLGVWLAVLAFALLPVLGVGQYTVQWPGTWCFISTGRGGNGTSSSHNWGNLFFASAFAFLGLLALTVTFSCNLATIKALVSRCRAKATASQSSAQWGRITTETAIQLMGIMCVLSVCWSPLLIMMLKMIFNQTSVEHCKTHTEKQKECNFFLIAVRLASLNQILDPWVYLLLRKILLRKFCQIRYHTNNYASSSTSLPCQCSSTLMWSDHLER

Prostaglandin E2 receptor EP2 subtype, sequence (P43116 whole entry): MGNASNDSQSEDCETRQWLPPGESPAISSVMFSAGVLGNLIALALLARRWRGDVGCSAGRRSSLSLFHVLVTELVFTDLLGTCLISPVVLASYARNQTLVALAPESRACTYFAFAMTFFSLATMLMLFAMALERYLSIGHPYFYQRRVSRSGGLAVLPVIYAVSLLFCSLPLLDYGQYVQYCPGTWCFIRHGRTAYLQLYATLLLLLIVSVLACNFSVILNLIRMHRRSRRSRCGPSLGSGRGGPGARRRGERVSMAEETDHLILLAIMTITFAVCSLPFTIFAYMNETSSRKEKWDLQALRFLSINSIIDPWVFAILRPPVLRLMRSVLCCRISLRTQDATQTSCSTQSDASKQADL
Prostaglandin E2 receptor EP4 subtype, sequence (P35408 whole entry): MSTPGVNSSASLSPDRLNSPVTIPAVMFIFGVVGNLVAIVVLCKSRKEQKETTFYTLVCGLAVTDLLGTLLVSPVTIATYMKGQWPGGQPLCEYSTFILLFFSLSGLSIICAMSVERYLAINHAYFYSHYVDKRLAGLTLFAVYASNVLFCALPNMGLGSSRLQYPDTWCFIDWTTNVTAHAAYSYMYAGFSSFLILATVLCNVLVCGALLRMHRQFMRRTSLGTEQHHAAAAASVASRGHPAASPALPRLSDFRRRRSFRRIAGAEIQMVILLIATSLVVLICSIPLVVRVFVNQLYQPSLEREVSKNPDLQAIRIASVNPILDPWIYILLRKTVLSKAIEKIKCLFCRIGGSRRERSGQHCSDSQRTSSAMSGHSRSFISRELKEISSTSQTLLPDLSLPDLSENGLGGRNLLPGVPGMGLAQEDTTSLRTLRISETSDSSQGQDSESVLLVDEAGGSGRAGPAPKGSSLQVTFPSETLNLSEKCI

- Ki [1]: 860 nM
- Ki [2]: 2000 nM
- Ki [3]: 9 nM
SMILES: Cc1cccc(C/C=C/c2ccccc2/C=C/C(=O)O)c1OCc1ccccc1
